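All cell lines were grown in 96-well plates and treated with compound for 48 hours. At the TGI there is no net growth.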
What was measured:
Test in all cases: NCI tumour cell line growth inhibition, 48 h
[1] = system: 786-0 renal
[2] = system: A498 renal
[3] = system: A549 NSCLC
[4] = system: ACHN renal
[5] = system: BT-549 breast
[6] = system: CAKI-1 renal
[7] = system: CCRF-CEM leukemia
[8] = system: COLO 205 colon
[9] = system: DU-145 prostate
[10] = system: EKVX NSCLC
[11] = system: HCC-2998 colon
[12] = system: HCT-116 colon
[13] = system: HCT-15 colon
[14] = system: HL-60(TB) leukemia
[15] = system: HOP-62 NSCLC
[16] = system: HOP-92 NSCLC
[17] = system: HS 578T breast
[18] = system: HT29 colon
[19] = system: IGROV1 ovarian
[20] = system: K-562 leukemia
[21] = system: KM12 colon
[22] = system: LOX IMVI melanoma
[23] = system: M14 melanoma
[24] = system: MALME-3M melanoma
[25] = system: MCF7 breast
[26] = system: MDA-MB-231 breast
[27] = system: MDA-MB-435
[28] = system: MDA-N
[29] = system: MOLT-4 leukemia
[30] = system: NCI-H226 lung
[31] = system: NCI-H23 lung
[32] = system: NCI-H460 lung
[33] = system: NCI-H522 lung
[34] = system: NCI/ADR-RES ovarian
[35] = system: OVCAR-3 ovarian
[36] = system: OVCAR-4 ovarian
[37] = system: OVCAR-8 ovarian
[38] = system: PC-3 prostate
[39] = system: RPMI-8226 leukemia
[40] = system: RXF 393 renal
[41] = system: SF-268 CNS
[42] = system: SF-295 CNS
[43] = system: SF-539 CNS
[44] = system: SK-MEL-28 melanoma
[45] = system: SK-MEL-5 melanoma
[46] = system: SK-OV-3 ovarian
[47] = system: SN12C renal
[48] = system: SNB-19 CNS
[49] = system: SNB-75 CNS
[50] = system: SR leukemia
[51] = system: SW-620 colon
[52] = system: T-47D breast
[53] = system: TK-10 renal
[54] = system: UACC-257 melanoma
[55] = system: UACC-62 melanoma
[56] = system: UO-31 renal
[57] = system: OVCAR-5 ovarian
[58] = system: SK-MEL-2 melanoma
[59] = system: U251 CNS

CC1C2CC(CC23OCC(CCl)O3)C1(C)C (stereo not drawn)
TGI [1]: > 100 µM
TGI [2]: > 100 µM
TGI [3]: > 100 µM
TGI [4]: > 100 µM
TGI [5]: > 100 µM
TGI [6]: > 100 µM
TGI [7]: > 100 µM
TGI [8]: > 100 µM
TGI [9]: > 100 µM
TGI [10]: > 100 µM
TGI [11]: > 100 µM
TGI [12]: > 100 µM
TGI [13]: > 100 µM
TGI [14]: > 100 µM
TGI [15]: > 100 µM
TGI [16]: > 100 µM
TGI [17]: > 100 µM
TGI [18]: > 100 µM
TGI [19]: > 100 µM
TGI [20]: > 100 µM
TGI [21]: > 100 µM
TGI [22]: > 100 µM
TGI [23]: > 100 µM
TGI [24]: > 100 µM
TGI [25]: > 100 µM
TGI [26]: > 100 µM
TGI [27]: > 100 µM
TGI [28]: > 100 µM
TGI [29]: > 100 µM
TGI [30]: > 100 µM
TGI [31]: > 100 µM
TGI [32]: > 100 µM
TGI [33]: > 100 µM
TGI [34]: > 100 µM
TGI [35]: > 100 µM
TGI [36]: > 100 µM
TGI [37]: > 100 µM
TGI [38]: > 100 µM
TGI [39]: > 100 µM
TGI [40]: > 100 µM
TGI [41]: > 100 µM
TGI [42]: > 100 µM
TGI [43]: > 100 µM
TGI [44]: > 100 µM
TGI [45]: > 100 µM
TGI [46]: > 100 µM
TGI [47]: > 100 µM
TGI [48]: > 100 µM
TGI [49]: > 100 µM
TGI [50]: > 100 µM
TGI [51]: > 100 µM
TGI [52]: > 100 µM
TGI [53]: > 100 µM
TGI [54]: > 100 µM
TGI [55]: > 100 µM
TGI [56]: > 100 µM

COC(=O)C1(CCC(=O)N(C)c2ccccc2)NNC2C(=O)N(c3ccccc3)C(=O)C21 (stereo not drawn)
TGI [1]: > 10 µM
TGI [2]: > 10 µM
TGI [3]: > 10 µM
TGI [4]: > 10 µM
TGI [5]: > 10 µM
TGI [6]: > 10 µM
TGI [7]: > 10 µM
TGI [8]: > 10 µM
TGI [9]: > 10 µM
TGI [10]: > 10 µM
TGI [11]: > 10 µM
TGI [12]: > 10 µM
TGI [13]: > 10 µM
TGI [14]: > 10 µM
TGI [15]: > 10 µM
TGI [16]: > 10 µM
TGI [17]: > 10 µM
TGI [18]: > 10 µM
TGI [19]: > 10 µM
TGI [21]: > 10 µM
TGI [22]: > 10 µM
TGI [23]: > 10 µM
TGI [24]: > 10 µM
TGI [25]: > 10 µM
TGI [26]: > 10 µM
TGI [27]: > 10 µM
TGI [28]: > 10 µM
TGI [30]: > 10 µM
TGI [31]: > 10 µM
TGI [32]: > 10 µM
TGI [33]: > 10 µM
TGI [34]: > 10 µM
TGI [35]: > 10 µM
TGI [36]: > 10 µM
TGI [57]: > 10 µM
TGI [37]: > 10 µM
TGI [38]: > 10 µM
TGI [39]: > 10 µM
TGI [40]: > 10 µM
TGI [41]: > 10 µM
TGI [42]: > 10 µM
TGI [43]: > 10 µM
TGI [58]: > 10 µM
TGI [44]: > 10 µM
TGI [45]: > 10 µM
TGI [46]: > 10 µM
TGI [47]: > 10 µM
TGI [48]: > 10 µM
TGI [49]: > 10 µM
TGI [50]: > 10 µM
TGI [51]: > 10 µM
TGI [52]: > 10 µM
TGI [53]: > 10 µM
TGI [59]: > 10 µM
TGI [54]: > 10 µM
TGI [55]: > 10 µM
TGI [56]: > 10 µM

From PubChem BioAssay (NCI)
